The subject of one experiment is Granulozyten. Kind of experiment: Chemiluminescence test (CL), respiratory burst of phagocytes activated with opsonised Zymosan. The class given is cell-based. An excerpt: Obwohl der Granulozytentest nach BRANDT eine zuverlässige Methode zur Ermittlung phagozytosesteigernder Eigenschaften von Substanzen und Extrakten darstellt, ist er sehr zeit- und personalaufwendig. Eine Alternative bietet die neue Methode der Chemilumineszenzmessung phagozytierender Zellen.
Seitdem ALLEN et al. (Biochem. Biophys. Res. Commun, 47,129,1972) als erste die Lichtemission von neutrophilen Granulozyten während der Phagozytose von Latexpartikeln und verschiedener Bakterien entdeckten und NELSON et al. (Infect. Immun 14,129,1976) und WEIDEMANN et al. (FEBS Letters 89,136,1978) CL-Erscheinungen an phagozytierenden Blutmakrophagen (Monozyten) nachweisen konnten, wird diese Reaktion auch in der experimentellen und klinischen Immunologie angewendet. Der genaue Mechanismus der dabei ablaufenden Reaktion konnte allerdings bis heute noch nicht vollständig aufgeklärt werden. Zusammenfassend lässt sich die bei aktivierten Phagozyten auftretende CL folgendermassen darstellen: der Kontakt dieser Zellen mit Bakterien, Viren oder anderem körperfremden Material, z.B. auch chemische Substanzen, führt zunächst zu einer gesteigerten Sauerstoffaufnahme. Anschliessend werden in der Zelle aus dem molekularen Sauerstoff Superoxid-Anion-Radikale O2^- gebildet, die sich dann entweder spontan oder enzymatisch katalysiert in andere aktivierte Sauerstoffmoleküle, wie Wasserstoffperoxid (H202), Singulett-Sauerstoff (^1O2), Hydroxylradikale (OH) und Hypochlorit-Anionen (OCI-) umwandeln. Dieser Vorgang wird «respiratory burst» genannt.
Durch die Freisetzung der aktivierten Sauerstoffmoleküle in die unmittelbare Umgebung der phagozytierenden Zelle, wie auch in die phagozytische Vakuole selbst und durch die Aktivierung lysosomaler Enzyme können eingedrungene Mikroorganismen oder Tumorzellen geschädigt oder getötet werden. Auch andere Moleküle sind daran beteiligt, so z.B. sogenannte kationische Proteine .und Laktoferrin. Die Zellwände der Mikroorganismen werden durch Oxidation oder Reduktion angegriffen und teilweise zerstört. Als Nebeneffekt tritt dabei CL auf, da das Zellwandmaterial als chemilumineszierendes Substrat für die aktivierten Sauerstoffmoleküle dient.
Die geringe Lichtausbeute solcher CL-Reaktionen phagozytierender Zellen wird im in-vitro-Experiment durch den Zusatz von Substanzen erhöht, die durch aktivierten Sauerstoff oxidiert werden und dabei Licht bestimmter Wellenlänge erzeugen, welches physikalisch gemessen werden kann. Als Substrate eignen sich dabei Luminol (5-Amino-2,3-dihydro-1,4-phthalazindion) und Lucigenin (10,10'-Dimethyl-9,9'-biacridiniumdini- trat), welche die CL-Antwort um das 10^3fache steigern.
Durch den Einsatz empfindlicher Messgeräte, in denen die Photonenzählung mit Hilfe von Photomultipliern erfolgt, lässt sich die durch die oben genannten Substanzen verstärkte CL messen. Es wurde ein 6-Kanal-CL-Gerät Biolumat^@ LB 9505 der Fa. Berthold benutzt, das sechs Testungen zur gleichen Zeit ermöglicht. Darüberhinaus erlaubte es das verwendete Gerät auch, die CL-Antwort zeitabhängig zu registrieren. So konnten den Dosis-Wirkungs- Kurven als dritte Dimension die zeitabhängige Wirkung hinzugefügt werden.
Zur in-vitro-Untersuchung des phagozytosesteigenden Wirkung von Substanzen können entweder gereinigte Zellpopulationen von Granulozyten oder Makrophagen verwendet werden, oder die Messung erfolgt direkt in verdünntem Vollblut.
Die Aktivierung der Phagozyten erfolgt dabei durch feste Partikel, z.B. opsonierte Bakterien, Zy- mosan^@ und Latexpartikel, oder durch bestimmte gelöste Substanzen. Bekannte Aktivatoren sind z.B. verschiedene lonophoren und Fluorid-lonen.
• a) Vollblut: 460 µl Veronal®-gepufferte Kochsalzlösung • 200 µl verdünntes Vollblut • 100 pl Lucigenin-Lösung • 200 µl in PBS (phosphat-gepufferte Kochsalzlösung) gelöste Substanz bzw. PBS als Kontrolle • b) PMNL: 630 µl Veronal@-gepufferte Kochsalzlösung • 15 µl PMNL • 100 µl Lucigenin-Lösung 200 µl in PBS gelöste Substanz bzw. PBS als Kontrolle […]

The subject of experiment [1] is Granulozytenfraktion (PMNL-Fraktion). Description: Granulocyte test modified after BRANDT (phagocytosis of yeast cells by PMNL). The class given is cell-based, menschlichen Blut. Particulars: for Wirksamkeit im Granulozytentest: summary in words. An excerpt:
Neutrophile Granulozyten sind zusammen mit Makrophagen die wichtigsten Effektorzellen der Phagozytose und nehmen damit eine wichtige Stellung in der Infektabwehr ein. Sie stellen etwa 60-70% aller weissen Blutkörperchen im menschlichen Blut dar. Der Phagozytoseleistung dieser Granulozyten lässt sich in vitro nach einer von BRANDT (Scand. J. Haematol. Suppl 2, 1967) entwickelten und vonTYMPNER (Münchn. Med. WSchr. 8, 251, 1978) modifizierten Methodik messen.
Dabei wird aus dem Blut gesunder Probanden eine Granulozytenfraktion (PMNL-Fraktion) gewonnen.
Diese PMNL-Fraktion besteht hauptsächlich aus neutrophilen Granulozyten neben wenig eosinophilen und basophilen Granulozyten sowie Lymphozyten, Monozyten und Thrombozyten. Nach Zusatz einer definierten Menge von Hefezellen (Saccharomyces cerevisiae) und der zu testenden Substanz wird zunächst 10 min bei 37° C inkubiert, die Aufschwemmung auf einem Objektträger ausgestrichen und weitere 35 min bei Raumtemperatur inkubiert. Anschliessend werden die Ausstriche angefärbt und mikroskopisch ausgewertet. Pro Objektträger werden 100 PMNL-Zellen ausgewählt und bestimmt, wieviele Hefepartikel von den einzelnen Zellen phagozytiert wurden. Der Phagozytoseindex (PJ) gibt die durchschnittliche Anzahl von phagozytierten Hefepartikeln pro Granulocyt an. Die Steigerung (S) der Phagozytoseaktivität im Blindwert wurde berechnet nach: [formula]

In experiment [2] the test system is Asciteszellen von Walker-250-Carcinosarkomen von Ratten. Description: Cytotoxicity by 3H-thymidine incorporation test on ascites cells. The class given is cell-based. Particulars: Walker 256; 2 mg/ml; read-out: Mittelwert der Methotrexat-Hemmung. From the text: Da im Granulozytentest einige Substanzen in hoher Konzentration die Granulozyten lysierten, wurde auch die zellschädigende Wirkung am Modell des 3H-Thymidineinbautests in Asciteszellen geprüft, um eine mögliche Beziehung zwischen Phagozytosesteigerung und Cytotoxizität auffinden zu können.
In diesem in-vitro-Testsystem nach WEITZEL et al (Hoppe-Seyler's Z. Physiorog. Chem. 348, 433, 1967) kann die Cytotoxizität von Substanzen durch Hemmung der DNA-Synthese von Tumorzellen zahlenmässig durch die veränderten Einbauraten von ^3H-Tymidin in Asciteszellen von […] von Ratten erfasst werden.
Die Ergebnisse wurden mit der Kontrolle verglichen und die Hemmeffekte in Prozent ausgedrückt. Relativierung der Testergebnisse Da die prozentuale Einbauhemmung bei gleichen Substanzen Schwankungen bis zu 30% zwischen einzelnen Versuchen zeigte, wurde Methotrexat®, welches als Folsäureantagonist die DNA-Synthese hemmt, als Bezugssubstanz in jeder Versuchsreihe mitgetestet. Der Mittelwert der Methotrexat®-Hemmung (43% bei 2 mg/ml) wurde zur Ermittlung der relativen Hemmung H der Substanzen herangezogen.
On the technique in general: Dividing cells build labelled thymidine or BrdU into new DNA.

In a further experiment the test system is Makrophagen-Phagozytose. Kind of experiment: In vitro macrophage phagocytosis. The class given is cell-based. The following applies: Konzentrationen von 10-^4% und 10-^5%.

`COc1cccc2c1cc([N+](=O)[O-])c1c(C(=O)O)cc3c(c12)OCO3` [Aristolochiasäure, reference compound]: the “Steigerung der Phagozytoseaktivität (respiratory burst)” value in the experiment on Granulozyten (CL-Test mit isolierten Granulozyten, Na-Salz) is reported as “dosisabhängige Steigerung der Phagozytoseaktivität”.

In the case of `COc1ccc2cc3[n+](cc2c1OC)CCc1cc2c(cc1-3)OCO2` [Berberin, reference compound], the “Wirkung im Granulozytentest” value in experiment [1] (tested up to 10^-4%) is “unwirksam”.

Turning to `CC[C@@]1(O)C(=O)OCc2c1cc1n(c2=O)Cc2cc3ccccc3nc2-1` [Camotothecin, reference compound], in experiment [1] (bis zu Verdünnungen von 10-^6%), the “Wirkung im Granulozytentest” value was “keine Wirkungen”.

As to `O=c1cccc2n1C[C@@H]1CNC[C@H]2C1` [Cytisin, reference compound], in experiment [1] (tested up to 10^-4%), the “Wirkung im Granulozytentest” value is “keine Wirkung”.

As for `C=C[C@]12CN(C)[C@@H]3[C@H]4CO[C@H](C[C@H]41)[C@]1(C(=O)Nc4ccccc41)[C@@H]32` [Gelsemin, reference compound], the “prozentuelle Phagozytosesteigerung” value in experiment [1] (Konzentration 10^-2 (in %)) is 22,1%; in experiment [1] (Konzentration 10^-3 (in %)), 40,4%; in experiment [1] (Konzentration 10^-4 (in %)), 33,7%; in experiment [1] (Konzentration 10^-5 (in %)) it was 8,2%.

For `COC(=O)C1=CO[C@@H](C)[C@H]2CN3CC[C@@]4(C(=O)Nc5ccccc54)[C@@H]3C[C@H]12` [Isomitraphyllin, normal-Isomitraphyllin], the “prozentuelle Phagozytosesteigerung” value in experiment [1] (Konzentration 10^-2 (in %)) is reported as 16,5%; in experiment [1] (Konzentration 10^-3 (in %)), 27,0%; in experiment [1] (Konzentration 10^-4 (in %)), 27,0%; in experiment [1] (Konzentration 10^-5 (in %)), 19,4%; in experiment [1] (Konzentration 10^-6 (in %)), 5,7%. Besides, the “Wirksamkeit im Granulozytentest” value in experiment [1] is “wirksamen”. For the same compound, the “prozentuelle Steigerung der CL-Antwort” value is recorded as 15,4% in the experiment on Granulozyten (Konzentration 10^-3 %); 15,7% in the experiment with Granulozyten (Konzentration 10^-4 %); 36,1% in the experiment with Granulozyten (Konzentration 10^-5 %); 46,7% with Granulozyten (Konzentration 10^-6 %); 18,6% with Granulozyten (Konzentration 10^-7 %).

As to `COC(=O)C1=CO[C@@H](C)[C@@H]2CN3CC[C@@]4(C(=O)Nc5ccccc54)[C@@H]3C[C@H]12` [Isopteropodin, allo-Isopteropodin], the “prozentuelle Phagozytosesteigerung” value in experiment [1] (Konzentration 10^-2 (in %)) was 23,4%; in experiment [1] (Konzentration 10^-3 (in %)) it was 48,7%; in experiment [1] (Konzentration 10^-4 (in %)) it was 55,0%; in experiment [1] (Konzentration 10^-5 (in %)), 38,2%; in experiment [1] (Konzentration 10^-6 (in %)) it was 28,2%; in experiment [1] (Konzentration 10^-7 (in %)), 13,6%. In addition, the “Wirksamkeit im Granulozytentest” value in experiment [1] is “wirksamen”. Besides, the “prozentuelle Steigerung der CL-Antwort” value with Granulozyten (Konzentration 10^-3 %) was 67,2%; in the experiment on Granulozyten (Konzentration 10^-4 %) it was 66,0%; with Granulozyten (Konzentration 10^-5 %), 55,7%; with Granulozyten (Konzentration 10^-6 %), 68,1%; with Granulozyten (Konzentration 10^-7 %), 55,3%; in the experiment on Granulozyten (Konzentration 10^-8 %), 31,2%.

Take `CC[C@H]1CN2CC[C@@]3(C(=O)Nc4ccccc43)[C@@H]2C[C@@H]1/C(=C\OC)C(=O)OC` [Isorhynchophyllin]: the “prozentuelle Phagozytosesteigerung” value in experiment [1] (Konzentration 10^-2 (in %)) was 10,8%; in experiment [1] (Konzentration 10^-3 (in %)), 25,2%; in experiment [1] (Konzentration 10^-4 (in %)) it was 27,3%; in experiment [1] (Konzentration 10^-5 (in %)), 16,1%; in experiment [1] (Konzentration 10^-6 (in %)), 8,8%. Further, the “Wirksamkeit im Granulozytentest” value in experiment [1] was “wirksamen”.

Turning to `CN(Cc1cnc2nc(N)nc(N)c2n1)c1ccc(C(=O)N[C@@H](CCC(=O)O)C(=O)O)cc1` [Methotrexat], the inhibition at 2000 µg/mL in experiment [2] was determined as 43%.

As for `COC(=O)C1=CO[C@@H](C)[C@H]2CN3CC[C@]4(C(=O)Nc5ccccc54)[C@@H]3C[C@H]12` [Mitraphyllin, normal-Mitraphyllin], the “Wirksamkeit im Granulozytentest” value in experiment [1] is recorded as “nicht wirksamen”.

Take `COC(=O)C1=CO[C@@H](C)[C@@H]2CN3CC[C@]4(C(=O)Nc5ccccc54)[C@@H]3C[C@H]12` [Pteropodin, allo-Pteropodin]: the “prozentuelle Phagozytosesteigerung” value in experiment [1] (Konzentration 10^-2 (in %)) is given as 11,2%; in experiment [1] (Konzentration 10^-3 (in %)), 21,7%; in experiment [1] (Konzentration 10^-4 (in %)) it was 26,1%; in experiment [1] (Konzentration 10^-5 (in %)), 23,0%. Besides, the “Wirksamkeit im Granulozytentest” value in experiment [1] is “wirksamen”. Moreover, the “prozentuelle Steigerung der CL-Antwort” value in the experiment with Granulozyten (Konzentration 10^-3 %) was 10,6%; in the experiment with Granulozyten (Konzentration 10^-4 %) it was 10,0%; in the experiment with Granulozyten (Konzentration 10^-5 %), 23,7%; in the experiment with Granulozyten (Konzentration 10^-6 %) it was 15,4%.

As for `CC[C@H]1CN2CC[C@]3(C(=O)Nc4ccccc43)[C@@H]2C[C@@H]1/C(=C\OC)C(=O)OC` [Rhynchophyllin], the “Wirksamkeit im Granulozytentest” value in experiment [1] is given as “nicht wirksamen”.

In the case of `C1CCN2C[C@@H]3C[C@@H](CN4CCCC[C@@H]34)[C@H]2C1` [Spartein, reference compound], in experiment [1] (tested up to 10^-4%), the “Wirkung im Granulozytentest” value is recorded as “keine Wirkung”.

Consider `COC(=O)C1=CO[C@@H](C)[C@@H]2CN3CC[C@@]4(C(=O)Nc5ccccc54)[C@H]3C[C@H]12` [Speciophyllin, reference compound], for which the “prozentuelle Phagozytosesteigerung” value in experiment [1] (Konzentration 10^-2 (in %)) was 10,5%; in experiment [1] (Konzentration 10^-3 (in %)), 18,5%; in experiment [1] (Konzentration 10^-4 (in %)), 26,0%; in experiment [1] (Konzentration 10^-5 (in %)), 35,3%.

On to `CC[C@]1(O)C[C@H]2CN(CCc3c([nH]c4ccccc34)[C@@](C(=O)OC)(c3cc4c(cc3OC)N(C=O)[C@H]3[C@@](O)(C(=O)OC)[C@H](OC(C)=O)[C@]5(CC)C=CCN6CC[C@]43[C@@H]65)C2)C1` [Vincristin, reference compound], for which, in experiment [1] (bis zu Verdünnungen von 10-^6%), the “Wirkung im Granulozytentest” value is listed as “keine Wirkungen”. Besides, the “in-vitro-Hemmung der Makrophagen-Phagozytose” value in the experiment with Makrophagen-Phagozytose is “in-vitro-Hemmung der Makrophagen-Phagozytose”.

Take Huangshanin [reference compound]: the “Wirkung im Granulozytentest” value in experiment [1] (tested up to 10^-4%) is “Negativ”.

On to Thalifaberin [reference compound], for which, in experiment [1] (tested up to 10^-4%), the “Wirkung im Granulozytentest” value was “Negativ”.

For Thalifabin [reference compound], the “Wirkung im Granulozytentest” value in experiment [1] (tested up to 10^-4%) is “Negativ”.

Values taken from EP0219491B1, “OXINDOLE ALKALOIDS WITH PROPERTIES STIMULATING THE IMMUNITY SYSTEM AND PREPARATIONS CONTAINING THEM” (KEPLINGER, Klaus, priority 1984, dated 1986).
